Like-named read-outs stand apart in the source and are kept apart here.
Legend:
[1] = test system: JJN-3 (NIK translocated) multiple myeloma cells; assay: Antiproliferative activity on JJN-3 multiple myeloma cells (CellTiter-Glo, 96 hr), Biological Assay C; assay type: cell-based, human; details: JJN-3 (NIK translocated) cells, averaged values, read-out: JJN-3 Proliferation inhibition (IC50 (nM))
How it was run: (§1)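 JJN-3 and KMS12-BM cells in RPMI 1640 with 10% FCS were plated at 15000–20000 cells/well and treated 96 h with a 9-point 1:3 dilution series (0.3% DMSO). Viability read by CellTiter-Glo luminescence, blank (time-zero cells) subtracted, expressed as % of untreated control; duplicate wells.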

[2] = test system: KMS12-BM (NIK WT) multiple myeloma cells; assay: Antiproliferative activity on KMS12-BM multiple myeloma cells (CellTiter-Glo, 96 hr), Biological Assay C; assay type: cell-based, human; details: averaged values, read-out: KMS-12 Proliferation inhibition (IC50 (nM))
How it was run: as §1

[3] = test system: P-IKKα levels in L363 (NIK translocated multiple myeloma) cells; assay: Effect of compounds on P-IKKα levels in L363 cells (Mesoscale sandwich immuno-assay), Biological Assay B; assay type: cell-based, human; details: 2 hr treatment, averaged values, read-out: Inhibition of pIKKα_L-363 (IC50 (nM))
Description: Effect of Compounds on P-IKKα Levels in L363 (NIK Translocated Multiple Myeloma) Cells
All compounds tested were dissolved in DMSO and further dilutions were made in culture medium. Final DMSO concentration was 1% (v/v) in cell assays. The human L363 cells (ATCC) were cultured in RPMI 1640 medium supplemented with GlutaMax and 10% fetal calf serum (PAA). Cells were routinely maintained at densities of 0.2×10^6 cells per ml-1×10^6 cells per ml at 37° C. in a humidified 5% CO2 atmosphere. Cells were passaged twice a week splitting back to obtain the low density. Cells were seeded in 96 well plates (Nunc 167008) at 2×10^6 per ml media in a volume of 75 μl per well plus 25 μl 1 μg/ml recombinant human B-cell activating factor (BAFF/BLyS/TNFSF13B). Seeded cells were incubated at 37° C. in a humidified 5% CO2 atmosphere for 24 hr. Drugs and/or solvents were added (20 μl) to a final volume of 120 μl. Following 2 hr treatment plates were removed from the incubator and cell lysis was achieved by the addition of 30 μl 5× lysis buffer followed by shaking on a plate shaker at 4° C. for 10 min. At the end of this incubation lysed cells were centrifuged at 800×g for 20 min at 4° C. and the lysate was assessed for P-IKKα levels by sandwich immuno-assay carried out in anti-rabbit antibody coated Mesoscale plates. Within an experiment, the results for each treatment were the mean of 2 replicate wells. For initial screening purposes, compounds were tested using an 8 point dilution curve (serial 1:3 dilutions). For each experiment, controls (containing MG132 and BAFF but no test drug) and a blank incubation (containing MG132 and BAFF and 10 μM ADS125117, a test concentration known to give full inhibition) were run in parallel. The blank incubation value was subtracted from all control and sample values. To determine the IC50 a sigmoidal curve was fitted to the plot of % inhibition of control P-IKKα levels versus Log10 compound concentration.
Note: Compounds 237 and 238 were tested at a maximum top concentration of 823 nM.

[4] = biological target: recombinant human NF-kappaB-inducing kinase (NIK/MAP3K14) (Homo sapiens, UniProt Q99558); assay: Inhibition of auto-phosphorylation of recombinant human NIK/MAP3K14 activity (AlphaScreen), Biological Assay A; assay type: biochemical; details: averaged values over all measurements on all batches
How it was run: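 GST-tagged enzyme (0.2 nM) incubated with compound and 25 μM ATP in 50 mM Tris pH 7.5, 5 mM MgCl2, 1 mM EGTA, 1 mM DTT, 0.1 mM Na3VO4, 1% DMSO, 1 h at 25 °C. Stopped with anti-phospho-IKK Ser176/180 antibody; AlphaScreen bead read, blank-subtracted, IC50 from sigmoidal fit.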

Chain of recombinant human NF-kappaB-inducing kinase (NIK/MAP3K14) (Q99558 whole entry): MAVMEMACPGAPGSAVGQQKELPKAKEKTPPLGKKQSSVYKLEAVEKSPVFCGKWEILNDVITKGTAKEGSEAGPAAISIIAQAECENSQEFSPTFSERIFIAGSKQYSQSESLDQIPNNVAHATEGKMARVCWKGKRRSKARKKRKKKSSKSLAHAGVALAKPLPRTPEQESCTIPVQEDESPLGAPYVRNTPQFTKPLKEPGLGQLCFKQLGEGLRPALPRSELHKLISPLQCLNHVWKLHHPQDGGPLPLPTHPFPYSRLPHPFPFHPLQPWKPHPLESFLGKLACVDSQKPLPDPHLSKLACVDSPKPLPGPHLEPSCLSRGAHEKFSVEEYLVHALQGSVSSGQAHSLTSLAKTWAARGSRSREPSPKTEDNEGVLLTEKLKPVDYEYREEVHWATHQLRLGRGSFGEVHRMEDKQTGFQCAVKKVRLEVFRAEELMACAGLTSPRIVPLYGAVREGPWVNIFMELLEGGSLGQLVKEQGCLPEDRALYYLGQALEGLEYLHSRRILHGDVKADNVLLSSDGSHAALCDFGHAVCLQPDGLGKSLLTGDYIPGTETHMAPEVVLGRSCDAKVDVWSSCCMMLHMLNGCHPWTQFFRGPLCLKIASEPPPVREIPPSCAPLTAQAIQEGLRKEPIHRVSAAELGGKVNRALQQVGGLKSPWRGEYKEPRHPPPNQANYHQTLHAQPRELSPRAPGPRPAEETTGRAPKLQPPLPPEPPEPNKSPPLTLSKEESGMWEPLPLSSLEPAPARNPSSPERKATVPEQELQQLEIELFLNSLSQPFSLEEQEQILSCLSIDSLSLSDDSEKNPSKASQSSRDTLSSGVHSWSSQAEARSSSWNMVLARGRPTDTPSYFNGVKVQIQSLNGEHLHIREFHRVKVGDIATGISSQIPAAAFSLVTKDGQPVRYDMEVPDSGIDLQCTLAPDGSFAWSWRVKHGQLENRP

Row | Compound | melting point | IC50 ([1]; Homo sapiens, JJN-3, 96 h) | IC50 ([2]; Homo sapiens, KMS-12-BM, 96 h) | IC50 ([3]; Homo sapiens, L-363, 2 h) | IC50 [4] | IC50 [1] | IC50 [2] | IC50 [3]
1 | Cc1ccc(C(=O)NCCN2CCOCC2)cc1Nc1nccc(-c2cc(C#N)c3c(c2)[C@@](C)(CO)CN3)n1 [Compound 159] | 140 °C | 4790 nM | > 10000 nM | 20.4 nM | 5.5 nM |  |  | 
2 | Cc1c(Nc2nccc(-c3cc(C#N)c4c(c3)[C@@](C)(CO)CN4)n2)cccc1C(=O)N1CC(C)OC(C)C1 (stereo partly drawn) [Compound 199] | 170 °C | 76 nM | > 10000 nM | 7.4 nM | 6.9 nM |  |  | 
3 | CN1CCC(Oc2ccc(Cl)cc2Nc2nccc(-c3cc(C#N)c4c(c3)C(C)(C)CN4)n2)CC1 [Compound 80] | 192 °C | 124 nM | 1000 nM | 209 nM | 15.2 nM |  |  | 
4 | C[C@]1(CO)CNc2c(C#N)cc(-c3ccnc(Nc4cc(CO)c(F)cc4OC4CC4)n3)cc21 [Compound 208] | 234 °C | 389 nM | > 10000 nM | 10.7 nM | 6.5 nM |  |  | 
5 | Cc1c(Nc2nccc(-c3cc(C#N)c4c(c3)[C@@](C)(CO)CN4)n2)cc(C#N)cc1C(=O)N1CCN(C)CC1 [Compound 203] | 294 °C | 14 nM | ~5890 nM | 1.8 nM | 6.6 nM |  |  | 
6 | C[C@]1(CO)CNc2c(C#N)cc(-c3ccnc(Nc4cc(C#N)ccc4CN4CCOCC4)n3)cc21 [Compound 224] | 238 °C | 3240 nM | > 10000 nM | 83.2 nM | 14.1 nM |  |  | 
7 | COC(=O)c1cc(OC)c(Nc2nccc(-c3cc(C#N)c4c(c3)C(C)(C)CN4)n2)cc1Cl [Compound 106] | 208 °C | 1620 nM | > 10000 nM | 123 nM | 63.1 nM |  |  | 
8 | COCCOc1ccc(Cl)cc1Nc1nccc(-c2cc(C#N)c3c(c2)[C@@](C)(CO)CN3)n1 [Compound 45] | 169 °C | 490 nM | > 10000 nM | 37.2 nM | 9.1 nM |  |  | 
9 | C[C@]1(CO)CNc2c(C#N)cc(-c3ccnc(Nc4cc(C#N)ccc4OCC4CC4)n3)cc21 [Compound 13] | 194 °C | 146 nM | > 10000 nM | 30.9 nM | 9.2 nM |  |  | 
10 | CN1CCN(Cc2ccc(C#N)cc2Nc2nccc(-c3cc(C#N)c4c(c3)[C@@](C)(CO)CN4)n2)CC1 [Compound 226] | 298 °C | 74 nM | > 10000 nM | 33.1 nM | 4.3 nM |  |  | 
11 | COCCOc1ccc(C#N)cc1Nc1nccc(-c2cc(C#N)c3c(c2)[C@@](C)(COC(C)=O)CN3)n1 [Compound 127] | 158 °C | 570 nM | > 10000 nM | 11.5 nM | 129 nM |  |  | 
12 | [2H]C([2H])(c1cccc(Nc2nccc(-c3cc(C#N)c4c(c3)[C@@](C)(CO)CN4)n2)c1C)N1CC(C)OC(C)C1 (stereo partly drawn) [Compound 198] | 222 °C | 63 nM | ~550 nM | 5.6 nM | 4.6 nM |  |  | 
13 | Cc1c(CN2CC(C)OC(C)C2)cccc1Nc1nccc(-c2cc(C#N)c3c(c2)[C@@](C)(CO)CN3)n1 (stereo partly drawn) [Compound 197] | 223 °C | 33 nM | ~240 nM | 4.8 nM | 6 nM |  |  | 
14 | Cc1ccc(OC2CCN(C)CC2)c(Nc2nccc(-c3cc(C#N)c4c(c3)[C@@](C)(CO)CN4)n2)c1 [Compound 234] | 192 °C | 20 nM |  | 5.9 nM | 3.5 nM |  |  | 
15 | CC(=O)NCCCCc1ccc(C#N)cc1Nc1nccc(-c2cc(C#N)c3c(c2)[C@@](C)(CO)CN3)n1 [Compound 185] | 156 °C |  |  | 6.6 nM | 6.5 nM |  |  | 
16 | Cc1ccc(CN2CCC(O)CC2)c(Nc2nccc(-c3cc(C#N)c4c(c3)[C@@](C)(CO)CN4)n2)c1 [Compound 221] | 181 °C |  |  | 646 nM | 32.4 nM |  |  | 
17 | Cc1ccc(-c2cncn2C)cc1Nc1nccc(-c2cc(C#N)c3c(c2)[C@@](C)(CO)CN3)n1 [Compound 189] | 239 °C |  |  | 1620 nM | 30.9 nM |  |  | 

Next, values leading:

Row | melting point | IC50 ([1]; Homo sapiens, JJN-3, 96 h) | IC50 ([2]; Homo sapiens, KMS-12-BM, 96 h) | IC50 ([3]; Homo sapiens, L-363, 2 h) | IC50 [4] | IC50 [1] | IC50 [2] | IC50 [3] | Compound
18 | 134 °C | 178 nM | > 10000 nM | 19.1 nM | 2.8 nM |  |  |  | C[C@]1(CO)CNc2c(C#N)cc(-c3ccnc(Nc4cc(C#N)ccc4CCCCN)n3)cc21 [Compound 184]
19 | 222 °C |  |  |  | 1.8 nM | 85 nM | 5190 nM | 2.2 nM | Cc1ccc(C#N)cc1Nc1nccc(-c2cc(C#N)c3c(c2)[C@@](C)(CO)CN3)n1 [Compound 1]
20 | 184 °C | 87 nM | > 10000 nM | 32.4 nM | 1.3 nM |  |  |  | C[C@]1(CO)CNc2c(C#N)cc(-c3ccnc(Nc4cc(C#N)ccc4OCCO)n3)cc21 [Compound 8]
21 | 240 °C | 14 nM | > 10000 nM | 1 nM | 7.8 nM |  |  |  | Cc1c(CN2CC(F)(F)C2)cc(C#N)cc1Nc1nccc(-c2cc(C#N)c3c(c2)[C@@](C)(CO)CN3)n1 [Compound 196]
22 | 218 °C | 1100 nM | > 10000 nM | 103 nM | 4.1 nM |  |  |  | Cc1ccc(C#N)cc1Nc1nccc(-c2cc(C#N)c3c(c2)[C@](C)(CO)CN3)n1 [Compound 65]
23 | 162 °C | 258 nM | 550 nM | 15.5 nM | 15.5 nM |  |  |  | CC(C)Oc1ccc(C#N)cc1Nc1nccc(-c2cc(C#N)c3c(c2)[C@@](C)(CO)CN3)n1 [Compound 16]
24 | 188 °C |  |  |  | 2.2 nM | 58 nM | 1290 nM | 1.4 nM | Cc1cc(C2CCCN(C)C2)c(C#N)cc1Nc1nccc(-c2cc(C#N)c3c(c2)[C@@](C)(CO)CN3)n1 (stereo partly drawn) [Compound 179]
25 | 210 °C | 30 nM | ~3720 nM | 1.9 nM | 6.2 nM |  |  |  | Cc1c(CN2CC(F)C2)cc(C#N)cc1Nc1nccc(-c2cc(C#N)c3c(c2)[C@@](C)(CO)CN3)n1 [Compound 195]
26 | 222 °C |  |  | 1.2 nM | 3.2 nM | 14 nM | ~246 nM |  | Cc1cc(C2CCCN(C)C2)c(C#N)cc1Nc1nccc(-c2cc(C#N)c3c(c2)[C@@](C)(CO)CN3)n1 (stereo partly drawn) [Compound 177]
27 | 188 °C | 22 nM | > 10000 nM | 1.7 nM | 1.6 nM |  |  |  | Cc1c(CO)cc(C#N)cc1Nc1nccc(-c2cc(C#N)c3c(c2)[C@@](C)(CO)CN3)n1 [Compound 193]
28 | 226 °C | 27 nM | ~191 nM | 2.8 nM | 1.8 nM |  |  |  | Cc1cc(C2CCN(C)CC2)c(C#N)cc1Nc1nccc(-c2cc(C#N)c3c(c2)[C@@](C)(CO)CN3)n1 [Compound 175]
29 | 249 °C | 955 nM | > 10000 nM | 34.7 nM | 1.1 nM |  |  |  | Cc1cc(C#CCN)c(C#N)cc1Nc1nccc(-c2cc(C#N)c3c(c2)[C@@](C)(CO)CN3)n1 [Compound 171]
30 | 122 °C |  |  | 427 nM | 22.4 nM |  |  |  | Cc1ccc(C(C)(C)O)cc1Nc1nccc(-c2cc(C#N)c3c(c2)[C@@](C)(CO)CN3)n1 [Compound 151]
